# Measured values taken from patent US20060117399A1, “Animal model for human lymphomas” (Medical University, priority 2004, published 2006).
# Legend:
# splenic B cells = experiment: In vitro lymphocyte survival and apoptosis assays (trypan blue dye exclusion); type: cell-based, mouse; conditions: for sensitivity of splenic B cells to death stimuli: both wild-type and p80HT splenic B cells, TNF-α 20 ng/ml, Fas ligand 100 ng/ml, doxorubicin 0.5 μg/ml
# Protocol: (§1) C-E: In vitro survival and apoptosis assays of splenic B cells and B lymphoma cells. Cells were either untreated (D) or treated with 0.5 μg/ml of doxorubicin (C) or with 20 μg/ml of LPS (E). Viability was determined by trypan blue dye exclusion assays. Data in (A-E) represent means±SD of cells from 5 mice of each genotype or from 58 lymphomas samples.
# (§2) Purified splenic B cells and B lymphoma cells (10^5/well, 96-well plate) were cultured in DMEM supplemented with 10% FBS, 250 μM L-asparagine, and 50 μM 2-mercaptoethanol. Cells were either untreated or treated with recombinant mouse TNF-α (20 ng/ml, Calbiochem), Fas ligand (100 ng/ml, PeoproTech), LPS (20 μg/ml, Sigma), or doxorubicin (0.5 μg/ml, Ben Venue Laboratories), and viable cells were determined daily by trypan blue dye exclusion assays.
# B lymphoma cells = experiment: as above; type: cell-based, mouse; conditions: B lymphoma cells from p80HT transgenic mice; doxorubicin 0.5 μg/ml
# Protocol: as §1, §2
molecule,measurement,setting,value
COc1cccc2c1C(=O)c1c(O)c3c(c(O)c1C2=O)C[C@@](O)(C(=O)CO)C[C@@H]3O[C@H]1C[C@H](N)[C@H](O)[C@H](C)O1 [doxorubicin],sensitivity of splenic B cells to death stimuli,splenic B cells,equally sensitive
same,apoptosis induced by doxorubicin,B lymphoma cells,highly resistant
TNF-a,sensitivity of splenic B cells to death stimuli,splenic B cells,highly resistant
lipopolysaccharide [LPS],apoptosis induced by the activation signal (LPS),"splenic B cells; p80HT splenic B cells, LPS 20 μg/ml",highly resistant
same,response of splenic B cells to LPS,"splenic B cells; splenic B cells generally, LPS 20 μg/ml, after about 3 days of proliferation",extensive apoptosis
"Fas ligand: death ligand, 100 ng/ml, PeoproTech (protein, UniProt P48023 130-281, looked up) Tumor necrosis factor ligand …: QIGHPSPPPEKKELRKVAHLTGKSNSRSMPLEWEDTYGIVLLSGVKYKKGGLVINETGLYFVYSKVYFRGQSCNNLPLSHKVYMRNSKYPQDLVMMEGKMMSYCTTGQMWARSSYLGAVFNLTSADHLYVNVSELSLVNFEESQTFFGLYKL",sensitivity of splenic B cells to death stimuli,splenic B cells,highly resistant
